Reference: patent US20260001928A1 (CORTERIA PHARMACEUTICALS, priority 2022, published 2026)
*1 amine or outer side, *2 acyl side, *3 side chain or, on linkers, in order; H or OH if unused. Where a SMILES comes first, the peptide text is derived from it. Side-chain parts run from the residue outwards. [ ]: non-standard residue; d: D form. The star is where a group is joined. C16 diacid = O=C(O)CCCCCCCCCCCCCCC(=O)*; γGlu = O=C(O)[C@H](CCC(=O)[*:2])N[*:1]; αMeL = CC(C)C[C@](C)(N)C(=O)O; Isovaleryl = CC(C)CC(=O)*; Aib = CC(C)(N)C(=O)O

Legend:
CFR1R receptor = target: T1, CFR1R receptor (Homo sapiens, UniProt P34998); test: Activity at anti-target CFR1R receptor, cAMP assay in CRF1R-overexpression CHO-K1 cells; assay type: cell-based; conditions: 100% = Sauvagine at 100 nM; for EC50: cAMP
T1 construct: host or cells: CHO-K1 (clone 2)
T1 sequence (P34998 24-415): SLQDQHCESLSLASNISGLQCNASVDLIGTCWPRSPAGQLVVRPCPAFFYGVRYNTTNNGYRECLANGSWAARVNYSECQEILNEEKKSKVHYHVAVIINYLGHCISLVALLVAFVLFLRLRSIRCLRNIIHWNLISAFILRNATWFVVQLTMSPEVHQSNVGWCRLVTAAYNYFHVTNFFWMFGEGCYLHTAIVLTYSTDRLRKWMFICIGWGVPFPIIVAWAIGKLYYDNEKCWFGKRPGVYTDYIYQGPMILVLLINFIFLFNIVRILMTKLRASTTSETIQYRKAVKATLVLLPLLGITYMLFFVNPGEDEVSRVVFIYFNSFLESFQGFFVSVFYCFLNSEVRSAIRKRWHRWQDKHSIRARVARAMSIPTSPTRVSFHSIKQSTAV
Method in brief: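 Grow clone 2 to near confluence at 37° C. under 5% CO2 in F12 (Hams) with 10% FBS and G418, harvest, and freeze in 10% DMSO. Thaw and plate at 4000 cells/well. Then proceed per the TeloHAEC method, normalising to Sauvagine 100 nM as maximum.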

human CRF2a receptor = target: T2, human CRF2a receptor (Homo sapiens, UniProt Q13324); test: Activity at human CRF2a receptor, cAMP functional assay in TeloHEAC cells; assay type: cell-based; conditions: TeloHEAC cells stably expressing human CRF2a receptor, relative to urocortin 2 (100 nM = 100%)
T2 construct: expressed in transfected cells; host or cells: TeloHEAC cells
T2 sequence (Q13324 1-411): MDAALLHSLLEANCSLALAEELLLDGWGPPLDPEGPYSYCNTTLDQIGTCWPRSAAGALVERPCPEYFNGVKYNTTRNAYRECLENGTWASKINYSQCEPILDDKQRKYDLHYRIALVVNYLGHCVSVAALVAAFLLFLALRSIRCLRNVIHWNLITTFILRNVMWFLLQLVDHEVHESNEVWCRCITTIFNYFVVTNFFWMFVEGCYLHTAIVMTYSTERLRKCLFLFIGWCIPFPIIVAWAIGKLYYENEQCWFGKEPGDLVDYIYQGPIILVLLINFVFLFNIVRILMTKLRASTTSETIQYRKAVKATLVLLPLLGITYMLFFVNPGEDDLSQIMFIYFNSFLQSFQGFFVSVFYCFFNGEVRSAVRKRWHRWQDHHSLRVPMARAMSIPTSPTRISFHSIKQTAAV
Description: Agonism of compounds for human corticotropin-releasing factor 2a (CRF2a receptor) was determined by a functional assay measuring cAMP modulation upon treatment of TeloHEAC cells stably expressing human CRF2a receptor. Compounds were dissolved at 0.5 mM in 100% DMSO and serially diluted (1:2) in 100% DMSO for 16 dilutions. 20 nL of each dilution was then transferred to 384-well assay plate using an acoustic droplet ejection instrument. 5 μL of compound buffer (1×HBSS; 20 mM HEPES,) were then added to each well. Prior to use, frozen cells were thawed quickly at 37° C. and washed (5 min at 900 rpm) with 20 mL cell buffer (1×HBSS; 20 mM HEPES). Cells were resuspended in cell buffer added with 2 mM IBMX and adjusted to a cell density of […]. 5 μL cells (final dell density: 10000 cells/well) were dispensed in the compound-containing 384-well assay plate and incubated for 30 minutes 37° C. The cAMP level in treated cells was determined using the Cisbio 62AM4PEC kit according to manufacturer's instruction. Finally, plates were incubated for 1 h at room temperature before measuring the fluorescence ratio between 665/620 nm. The percent activity value (E %) was calculated by setting 100 nM of urocortin 2 (UCN2) as 100%. The in vitro potency of the compounds was quantified by determining the concentrations that caused 50% activation of maximal response (EC50) relative to urocortin 2.

Emax (% I) (CFR1R receptor)	EC50 (human CRF2a receptor) [nM]	EC50 (CFR1R receptor) [nM]	Structure (SMILES)
77	0.16		CC[C@H](C)[C@H](NC(=O)[C@H](CCC(N)=O)NC(=O)[C@H](CCCCNC(=O)CC[C@H](NC(=O)CCCCCCCCCCCCCCC(=O)O)C(=O)O)NC(=O)[C@H](CC(C)C)NC(=O)[C@H](CCCCN)NC(=O)[C@@H](NC(=O)[C@@H]1CCCN1C(=O)[C@H](NC(=O)[C@H](CC(=O)O)NC(=O)[C@H](CC(C)C)NC(=O)[C@H](CO)NC(=O)[C@H](CC(C)C)NC(=O)[C@@H](NC(=O)CC(C)C)C(C)C)C(C)C)[C@@H](C)CC)C(=O)N[C@@H](CC(C)C)C(=O)N[C@@H](CC(C)C)C(=O)N[C@@H](CCCCN)C(=O)N[C@@H](CCC(N)=O)C(=O)N[C@@H](CCC(=O)O)C(=O)N[C@@H](CCCNC(=N)N)C(=O)N[C@@H](CCC(N)=O)C(=O)N[C@@H](CCCCN)C(=O)N[C@@H](CCCCN)C(=O)N[C@@H](CCC(N)=O)C(=O)N[C@@H](CCCNC(=N)N)C(=O)N[C@@H](CCC(=O)O)C(=O)N[C@@H](CCC(N)=O)C(=O)N[C@@H](C)C(=O)N[C@@H](CCC(=O)O)C(=O)N[C@@H](CCCCN)C(=O)N[C@@H](CC(N)=O)C(=O)N[C@@H](CCCCN)C(=O)N[C@@H](CCC(N)=O)C(=O)N[C@H](C(=O)N[C@@H](CC(C)C)C(=O)N[C@@H](CCC(=O)O)C(=O)N[C@@H](CCC(N)=O)C(=O)N[C@H](C(N)=O)C(C)C)[C@@H](C)CC [compound 9] (Isovaleryl-VLSLD[dV]PIKLK([γGlu-C16 diacid])QILLKQERQKKQREQAEKNKQILEQV-NH2)
47	0.13		CC[C@H](C)[C@H](NC(C)=O)C(=O)N[C@H](C(=O)N[C@@H](CC(C)C)C(=O)N[C@@H](CO)C(=O)N[C@@H](CC(C)C)C(=O)N[C@@H](CC(=O)O)C(=O)N[C@@H](C(=O)N1CCC[C@H]1C(=O)N[C@H](C(=O)N[C@@H](CCCCN)C(=O)N[C@@H](CC(C)C)C(=O)N[C@@H](CCCCNC(=O)CC[C@H](NC(=O)CCCCCCCCCCCCCCC(=O)O)C(=O)O)C(=O)N[C@@H](CCC(N)=O)C(=O)N[C@H](C(=O)N[C@@H](CC(C)C)C(=O)N[C@@H](CC(C)C)C(=O)N[C@@H](CCCCN)C(=O)N[C@@H](CCC(N)=O)C(=O)N[C@@H](CCC(=O)O)C(=O)N[C@@H](CCCNC(=N)N)C(=O)N[C@@H](CCC(N)=O)C(=O)N[C@@H](CCCCN)C(=O)N[C@@H](CCCCN)C(=O)N[C@@H](CCC(N)=O)C(=O)N[C@@H](CCCNC(=N)N)C(=O)N[C@@H](CCC(=O)O)C(=O)N[C@@H](CCC(N)=O)C(=O)N[C@@H](C)C(=O)N[C@@H](CCC(=O)O)C(=O)N[C@@H](CCCCN)C(=O)N[C@@H](CC(N)=O)C(=O)NC(C)(C)C(=O)N[C@@H](CCC(N)=O)C(=O)N[C@H](C(=O)N[C@@H](CC(C)C)C(=O)N[C@@H](CCC(=O)O)C(=O)N[C@@H](CCC(N)=O)C(=O)N[C@H](C(N)=O)C(C)C)[C@@H](C)CC)[C@@H](C)CC)[C@@H](C)CC)C(C)C)C(C)C [compound 16] (Ac-IVLSLD[dV]PIKLK([γGlu-C16 diacid])QILLKQERQKKQREQAEKN[Aib]QILEQV-NH2)
12	0.21	> 250	CC[C@H](C)[C@H](NC(C)=O)C(=O)N[C@H](C(=O)N[C@@H](CC(C)C)C(=O)N[C@@H](CO)C(=O)N[C@@H](CC(C)C)C(=O)N[C@@H](CC(=O)O)C(=O)N[C@@H](C(=O)N1CCC[C@H]1C(=O)N[C@H](C(=O)N[C@@H](CCCCN)C(=O)N[C@@H](CC(C)C)C(=O)N[C@@H](CCCCNC(=O)CC[C@H](NC(=O)CCCCCCCCCCCCCCC(=O)O)C(=O)O)C(=O)N[C@@H](CCC(N)=O)C(=O)N[C@H](C(=O)N[C@@H](CC(C)C)C(=O)N[C@@H](CC(C)C)C(=O)N[C@@H](CCCCN)C(=O)N[C@@H](CCC(N)=O)C(=O)N[C@@H](CCC(=O)O)C(=O)N[C@@H](CCCNC(=N)N)C(=O)N[C@@H](CCC(N)=O)C(=O)N[C@@H](CCCCN)C(=O)N[C@@H](CCCCN)C(=O)N[C@@H](CCC(N)=O)C(=O)N[C@@H](CCCNC(=N)N)C(=O)N[C@@H](CCC(=O)O)C(=O)N[C@@H](CCC(N)=O)C(=O)N[C@@H](C)C(=O)N[C@@H](CCC(=O)O)C(=O)N[C@@H](CCCCN)C(=O)N[C@@H](CC(N)=O)C(=O)N[C@@H](CCC(=O)O)C(=O)N[C@@H](CCC(N)=O)C(=O)N[C@H](C(=O)N[C@@H](CC(C)C)C(=O)N[C@@H](CCC(=O)O)C(=O)N[C@@H](CCC(N)=O)C(=O)N[C@H](C(N)=O)C(C)C)[C@@H](C)CC)[C@@H](C)CC)[C@@H](C)CC)C(C)C)C(C)C [compound 17] (Ac-IVLSLD[dV]PIKLK([γGlu-C16 diacid])QILLKQERQKKQREQAEKNEQILEQV-NH2)
10	3.55	> 250	CC[C@H](C)[C@H](NC(C)=O)C(=O)N[C@H](C(=O)N[C@@H](CC(C)C)C(=O)N[C@@H](CO)C(=O)N[C@@H](CC(C)C)C(=O)N[C@@H](CC(=O)O)C(=O)N[C@@H](C(=O)N1CCC[C@H]1C(=O)N[C@H](C(=O)N[C@@H](CCCCN)C(=O)N[C@@H](CC(C)C)C(=O)N[C@@H](CCCCNC(=O)CC[C@H](NC(=O)CCCCCCCCCCCCCCC(=O)O)C(=O)O)C(=O)N[C@@H](CCC(N)=O)C(=O)NC(C)(C)C(=O)N[C@@H](CC(C)C)C(=O)N[C@@H](CC(C)C)C(=O)N[C@@H](CCCCN)C(=O)N[C@@H](CCC(N)=O)C(=O)N[C@@H](CCC(=O)O)C(=O)N[C@@H](CCCNC(=N)N)C(=O)N[C@@H](CCC(N)=O)C(=O)N[C@@H](CCCCN)C(=O)N[C@@H](CCCCN)C(=O)N[C@@H](CCC(N)=O)C(=O)N[C@@H](CCCNC(=N)N)C(=O)N[C@@H](CCC(=O)O)C(=O)N[C@@H](CCC(N)=O)C(=O)N[C@@H](C)C(=O)N[C@@H](CCC(=O)O)C(=O)N[C@@H](CCCCN)C(=O)N[C@@H](CC(N)=O)C(=O)N[C@H](C(=O)N[C@@H](CCC(N)=O)C(=O)N[C@H](C(=O)N[C@@H](CC(C)C)C(=O)N[C@@H](CCC(=O)O)C(=O)N[C@@H](CCC(N)=O)C(=O)N[C@H](C(N)=O)C(C)C)[C@@H](C)CC)C(C)C)[C@@H](C)CC)C(C)C)C(C)C [compound 18] (Ac-IVLSLD[dV]PIKLK([γGlu-C16 diacid])Q[Aib]LLKQERQKKQREQAEKNVQILEQV-NH2)
3	1.09	> 250	CC[C@H](C)[C@H](NC(C)=O)C(=O)N[C@H](C(=O)N[C@@H](CC(C)C)C(=O)N[C@@H](CO)C(=O)N[C@@H](CC(C)C)C(=O)N[C@@H](CC(=O)O)C(=O)N[C@H](C(=O)N1CCC[C@H]1C(=O)N[C@H](C(=O)N[C@@H](CCCCN)C(=O)N[C@@](C)(CC(C)C)C(=O)N[C@@H](CCCCNC(=O)CC[C@H](NC(=O)CCCCCCCCCCCCCCC(=O)O)C(=O)O)C(=O)N[C@@H](CCC(N)=O)C(=O)NC(C)(C)C(=O)N[C@@H](CC(C)C)C(=O)N[C@@H](CC(C)C)C(=O)N[C@@H](CCCCN)C(=O)N[C@@H](CCC(N)=O)C(=O)N[C@@H](CCC(=O)O)C(=O)N[C@@H](CCCNC(=N)N)C(=O)N[C@@H](CCC(N)=O)C(=O)N[C@@H](CCCCN)C(=O)N[C@@H](CCCCN)C(=O)N[C@@H](CCC(N)=O)C(=O)N[C@@H](CCCNC(=N)N)C(=O)N[C@@H](CCC(=O)O)C(=O)N[C@@H](CCC(N)=O)C(=O)N[C@@H](C)C(=O)N[C@@H](CCC(=O)O)C(=O)N[C@@H](CCCCN)C(=O)N[C@@H](CC(N)=O)C(=O)NC(C)(C)C(=O)N[C@@H](CCC(N)=O)C(=O)N[C@H](C(=O)N[C@@H](CC(C)C)C(=O)N[C@@H](CCC(=O)O)C(=O)N[C@@H](CCC(N)=O)C(=O)N[C@H](C(N)=O)C(C)C)[C@@H](C)CC)[C@@H](C)CC)C(C)C)C(C)C [compound 20] (Ac-IVLSLDVPIK[αMeL]K([γGlu-C16 diacid])Q[Aib]LLKQERQKKQREQAEKN[Aib]QILEQV-NH2)
